In patent US20210024483A1, “HETEROCYLCOALKENYL DERIVATIVES USEFUL AS AGONISTS OF THE GPR120 AND / OR GPR40” (Janssen Pharmaceutica NV, priority 2018, published 2021) one finds EC50 data, which are given here for 33 compounds.

The target in one test is GPR40 (UniProt O14842). Put plainly: GPR40 Calcium Flux Assay. In kind it is cell-based. Conditions: transfected HEK293 cells stably expressing human or rat GPR40; species not given. As to the method:
Biological Example 3: In Vitro Assay
Compounds were tested in a calcium flux assay using transfected HEK293 cells stably expressing either human GPR40 or rat GPR40. Human GPR40 expressing cells were cultured in DMEM-High Glucose media supplemented with 10% fetal bovine serum, 1×L-Glutamine, 1× Penicillin/Streptomycin and 500 μg/mL G418. Rat GPR40 expressing cells were cultured in DMEM-High Glucose media supplemented with 10% fetal bovine serum and 1 μg/mL puromycin. Cells were plated into poly-D-lysine coated 384-well plates and cultured overnight in a 37° C. humidified tissue culture incubator under 5% CO2/90% O2 atmosphere.
On the day of the experiment, the culture media was replaced with assay buffer (HBSS, 20 mM HEPES, 0.1% BSA) and the cells incubated at 37° C. for 1 h. Calcium-sensitive fluorescent dye (Fluo 8 No-Wash Calcium Dye, ABD Bioquest) was then added and the cells incubated for another 30 min at 37° C. followed by 15 min at room temperature while protected from the light. The cell plate and a plate of diluted compounds of Formula (I) were loaded into a fluorescent plate reader that added compounds onto the cells while measuring the fluorescence intensity of each well. The plate reader recorded fluorescence intensity at 1 second intervals for 8 min and provided the data for analysis in an Excel format. EC50 values were calculated using Prism (GraphPad) software.

Test [1] deals with T1, Human GPR120 short form (short splice variant, NM_001195755.1) (Homo sapiens, UniProt Q5NUL3).
T1 construct: expressed in transfected cells; host or cells: HEK293
T1 sequence (Q5NUL3 1-361): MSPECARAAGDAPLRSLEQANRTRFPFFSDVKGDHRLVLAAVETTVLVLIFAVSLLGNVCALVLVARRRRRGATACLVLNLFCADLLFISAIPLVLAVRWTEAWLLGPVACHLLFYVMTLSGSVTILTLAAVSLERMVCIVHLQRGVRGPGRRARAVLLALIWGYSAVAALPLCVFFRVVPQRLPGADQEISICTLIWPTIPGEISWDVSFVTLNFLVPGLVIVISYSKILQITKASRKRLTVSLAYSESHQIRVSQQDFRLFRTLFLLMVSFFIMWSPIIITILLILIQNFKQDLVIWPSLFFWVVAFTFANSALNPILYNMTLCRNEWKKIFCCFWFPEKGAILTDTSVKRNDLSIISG
Nature of the test: Human GPR120 Calcium Flux Assay. Format: cell-based. Conditions: HEK-293 cells, 4200 cells/well, read-out: Human GPR120 Calcium Flux Assay Procedure B EC50. The text has this:
In Vitro Assay: Human GPR120 in Calcium Flux Assay
This in vitro assay serves to assess test compound agonist activity against the short splice variant (SVS with Accession number NM_001195755.1 confirmed by sequencing data) of the GPR120 receptor. The Human Short splice variant #2 (NM_001195755.1) is missing an in-frame coding exon compared to variant 1 (the Human Long splice variant NM_181745.3), resulting in a shorter isoform (GPR120-S) lacking a 16 aa protein segment compared to isoform GPR120-L. The assay platform utilizes HEK-293 cells stably transfected to express the Human GPR120 short form. These cells are first loaded with the Ca^+2 sensitive dye, Fluo-4 NW. Upon stimulation, intracellular released Ca^+2 can bind to the dye and alter its fluorescence intensity. This increase in fluorescence signal, and thus the flux in intracellular [Ca^2+], is detected and quantitated by fluorescence imaging using a FLIPR reader. The effect of the agonist is measured as a function of concentration and used to calculate an EC50 based upon a response curve. […]
In this procedure 4200 cells/well were employed.
A Human GPR120 clone (Genbank accession number NM_001195755.1) was placed into the pcDNA3.1 mammalian expression vector carrying the neomycin resistance gene. A stable mammalian cell was generated by placing the above clone into a HEK293 background. Clonal cells responding to long chain fatty acids had expression levels of GPR120 confirmed by RT-qPCR. Human HEK-GPR120 cells were cultured in Dulbecco's Modified Eagle's Medium (DMEM)/F12 medium supplemented with 10% fetal bovine serum (FBS), 1% L-Glutamine and 1% penicillin/streptomycin and 0.5 mg/ml G-418. Cells were split 2 times a week to keep the cells in the log-phase growth.
In preparation for the assay, HEK cells stably transfected with Human GPR120 (2.5K cells per well in 25 uL growth medium) were seeded into 384-well plates and then incubated overnight (37° C., 5% CO2). The next day, the media was changed to 20 μL assay buffer and the cell starved for 1 h at 37° C. The dye loading solution (2× dye) was prepared using 10 mL assay buffer, 100 μL of 250 mM probenecid, 1 bottle of Component A, and 20 μl of dye in DMSO. Twenty μL of the 2× dye loading buffer was then added to each well. The plates were incubated at 37° C. for 30 min, then at room temperature for an additional 15 minutes, before performing the assay on FLIPR.
The assay was performed on a FLIPR plate reader using the following parameters. Baseline was read for 10 seconds at 1 sec intervals. The program was set to transfer 10 μL of ligand from compound plate to cell plate after baseline reading. Aspiration was executed at: 10 μL/sec speed, 4.6 μL height; Dispensing was executed at: 30 μL/sec speed, 45 μL height. After compound addition, each well was read for 300 sec, with measurements collected at 1 sec intervals.
The kinetic data from the FLIPR was based upon a 5 minute window for data collection. The fluorescence of each sample well was used for individual calculations of a normalized RFU value, which was defined as maximum response minus the minimum response. The normalized fluorescence reading (RFU) was calculated as follows:
The data were fitted to a sigmoidal dose-response curve with a variable Hill slope (<2) using nonlinear regression with GraphPad Prism 5.0 to calculate the EC50 values. The Fitting Equation was: Y=Bottom+(Top−Bottom)/(1+10^((Log EC50−X)*HillSlope)), where X is the log of the concentration and Y is the response.

The structures appear in SMILES notation.

On to `CCC1=C(COc2ccc(CCC(=O)O)c(C(F)(F)F)c2)COCC1` [compound 716], for which the results for the EC50 (on GPR40; in test [1]) were 571 nM and 1840 nM, respectively.
Take `CCCCCCC1=C(COc2ccc(CCC(=O)O)c(C(F)(F)F)c2)COCC1` [compound 719]: the EC50 is 1020 nM at GPR40 and greater than 5000 nM in test [1].
As for `Cc1ccc(C2=C(COc3ccc(CCC(=O)O)cc3)CCOC2)cc1F` [compound 769], the EC50 was greater than 10000 nM at GPR40 and 1090 nM in test [1].
On the same counts, the results for `C=C(C1=C(COc2ccc(CCC(=O)O)c(C(F)(F)F)c2)COCC1)c1ccc(C(F)(F)F)cc1` [compound 705] are 73 nM and greater than 5000 nM.
As for `O=C(O)CCc1ccc(OCC2=C(Cc3ccc(Cl)cc3)CCOC2)cc1C(F)(F)F` [compound 696], the EC50 at GPR40 was 218 nM; in test [1], greater than 5000 nM.
As for `Cc1c(CCC(=O)O)ccc(OCC2=C(C3CCC3)CCOC2)c1C` [compound 724], the EC50 at GPR40 was greater than 10000 nM; in test [1], 275 nM.
On to `C=C(C1=C(COc2ccc(CCC(=O)O)cc2)COCC1)c1ccc(F)cc1` [compound 702], for which the EC50 at GPR40 was 1560 nM; in test [1], greater than 5000 nM.
Take `Cc1ccc(C2=C(COc3ccc(CCC(=O)O)c(C(F)(F)F)c3)COCC2)c(F)c1` [compound 684]: the EC50 at GPR40 was 2700 nM; in test [1], 786 nM.
On the same counts, the results for `CC(C)C1=C(COc2ccc(CCC(=O)O)c(C(F)(F)F)c2)COCC1` [compound 735] are 492 nM and 2190 nM.
For `CCCCC1=C(COc2ccc(CCC(=O)O)c(C(F)(F)F)c2)COCC1` [compound 707], the values for the EC50 (on GPR40; in test [1]) were 326 nM and 829 nM, respectively.
On the same counts, the results for `O=C(O)CCc1ccc(OCC2=C(Cc3ccccc3)CCOC2)cc1` [compound 688] are 3250 nM and 2940 nM.
Consider `C=C(C1=C(COc2ccc(CCC(=O)O)c(C(F)(F)F)c2)COCC1)c1ccccc1Cl` [compound 706], for which the EC50 at GPR40 was 38 nM; in test [1], greater than 5000 nM.
In the case of `O=C(O)CCc1ccc(OCC2=C(C3CCCCC3)CCOC2)cc1C(F)(F)F` [compound 729], the 50% effective concentration (EC50) is 847 nM on GPR40 and 2680 nM in test [1].
For the compound `Cc1ccc(C2=C(COc3ccc(CCC(=O)O)c(C)c3C)COCC2)cc1F` [compound 659], the EC50 on GPR40 is greater than 10000 nM; in test [1], 66 nM.
The matching figures for `O=C(O)CCc1cc(F)c(OCC2=C(C3CCCC3)CCOC2)c(F)c1` [compound 736]: greater than 10000 nM and 615 nM.
As to `C=C(C1=C(COc2ccc(CCC(=O)O)c(C(F)(F)F)c2)COCC1)c1ccccc1` [compound 687], the figures for the EC50 (at GPR40; in test [1]) were 54 nM and greater than 5000 nM, respectively.
For `C=C(C1=C(COc2ccc(CCC(=O)O)cc2)COCC1)c1ccccc1` [compound 699], the EC50 on GPR40 was 1740 nM; in test [1], greater than 5000 nM.
As to `O=C(O)CCc1ccc(OCC2=C(C3CCCC3)COC2)cc1` [compound 632], the EC50 on GPR40 came to 2580 nM; in test [1], 422 nM.
For the compound `Cc1ccc(C2=C(COc3ccc(CCC(=O)O)cc3)CCOCC2)cc1F` [compound 783], the EC50 was found to be 7880 nM on GPR40 and 1360 nM in test [1].
As to `CCC(C)C1=C(COc2ccc(CCC(=O)O)c(C(F)(F)F)c2)COCC1` (stereo not drawn) [compound 734], the EC50 stood at 744 nM on GPR40 and 10100 nM in test [1].
`O=C(O)CCc1ccc(OCC2=C(Cc3ccc(Cl)cc3)CCOC2)cc1Cl` [compound 709]: the EC50 on GPR40 is 2300 nM; in test [1], greater than 5000 nM.
For `O=C(O)CCc1ccc(OCC2=C(C3CCCC3)CCOCC2)cc1` [compound 780], the half-maximal effective concentration (EC50) on GPR40 came out at 2660 nM; in test [1] it was 1310 nM.
Consider `O=C(O)CCc1cc(F)c(OCC2=C(Cc3ccc(Cl)cc3)CCOC2)c(F)c1` [compound 721], for which the EC50 on GPR40 was greater than 10000 nM; in test [1] it was 2420 nM.
For `COc1ccc(CC2=C(COc3ccc(CCC(=O)O)c(C(F)(F)F)c3)COCC2)cc1` [compound 698], the EC50 on GPR40 was 335 nM; in test [1], greater than 5000 nM.
On to `Cc1ccc(CC2=C(COc3ccc(CCC(=O)O)cc3)COCC2)cc1` [compound 691], for which the EC50 at GPR40 worked out at 3620 nM; in test [1], 2400 nM.
On the same counts, the results for `O=C(O)CCc1ccc(OCC2=C(C3CCC3)CCOC2)cc1Cl` [compound 725] are 588 nM and 2340 nM.
Take `O=C(O)CCc1ccc(OCC2=C(Cc3ccc(Cl)cc3)CCOC2)cc1` [compound 695]: the concentration for a half-maximal effect (EC50) on GPR40 was 3190 nM; in test [1] it was greater than 5000 nM.
On to `Cc1ccc(C2=C(COc3ccc(CCC(=O)O)c(C(F)(F)F)c3)COCC2)cc1F` [compound 685], for which the EC50 at GPR40 was 829 nM; in test [1], 970 nM.
In the case of `CC(C)CC1=C(COc2ccc(CCC(=O)O)c(C(F)(F)F)c2)COCC1` [compound 717], the EC50 at GPR40 was found to be 133 nM; in test [1] it was 1300 nM.
As to `CC(C)CC1=C(COc2c(F)cc(CCC(=O)O)cc2F)COCC1` [compound 733], the EC50 is greater than 10000 nM on GPR40 and 1810 nM in test [1].
For the compound `O=C(O)CCc1ccc(OCC2=C(C3CCCC3)COCC2)cc1` [compound 764], the EC50 at GPR40 came to 1440 nM; in test [1] it was 455 nM.
On to `C=C(C1=C(COc2ccc(CCC(=O)O)c(C(F)(F)F)c2)COCC1)c1ccc(F)cc1` [compound 703], for which the EC50 is 68 nM at GPR40 and greater than 5000 nM in test [1].
Regarding `O=C(O)CCc1ccc(OCC2=C(C3C=CCC3)CCOC2)cc1` (stereo not drawn) [compound 740], the EC50 at GPR40 stood at 2080 nM; in test [1], 1140 nM.
